Our source for the Ki and immunosuppressant activity values is EP0496452A1, “Novel endothelin receptor antagonists isolated from microbispora” (MERCK & CO. INC., priority 1991, dated 1992).

*1 amine or outer side, *2 acyl side, *3 side chain or, on linkers, in order; H or OH if unused. Where a SMILES comes first, the peptide text is derived from it. Bridges are numbered along the chain shown (N, C = ends). [ ]: non-standard residue; d: D form. The star is where a group is joined. dPhg(3,5-diOH) = N[C@@H](C(=O)O)c1cc(O)cc(O)c1; X2 = O=C([C@@H](N[*:1])c1cc(O)cc(O)c1)[*:2]; d(aThr) = C[C@@H](O)[C@@H](N)C(=O)O; Pyrrole2CO = O=C(c1ccc[nH]1)*; X1 = O=C(c1ccc(Cl)[nH]1)*

One assay addresses T1, ET-B (Rattus norvegicus, UniProt P21451).
T1 construct: Membranes were prepared from rat hippocampus, and rat or cow aorta; from tissue; host or cells: rat hippocampus membranes
T1 sequence (P21451 27-442): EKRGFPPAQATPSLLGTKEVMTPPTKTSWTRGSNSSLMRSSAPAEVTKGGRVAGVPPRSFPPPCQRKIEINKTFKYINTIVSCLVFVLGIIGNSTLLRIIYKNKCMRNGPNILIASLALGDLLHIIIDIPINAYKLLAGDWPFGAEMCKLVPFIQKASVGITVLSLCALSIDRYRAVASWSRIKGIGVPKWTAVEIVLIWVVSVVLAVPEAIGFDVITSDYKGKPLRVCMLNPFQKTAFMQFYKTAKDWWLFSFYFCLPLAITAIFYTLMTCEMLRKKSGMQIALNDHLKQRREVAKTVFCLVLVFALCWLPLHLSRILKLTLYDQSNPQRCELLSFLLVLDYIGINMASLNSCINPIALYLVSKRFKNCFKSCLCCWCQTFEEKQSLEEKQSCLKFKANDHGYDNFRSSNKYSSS
Put plainly: 125I-ET-1 endothelin receptor binding assay, rat hippocampus membranes. The settings on record: 25 pM 125I-ET-1, 37° C. As to the method:
(§1) The binding of cyclopeptides I, II and III to the endothelin receptor was determined in accordance with the assay described in detail immediately below. It is similar to the assay described in Ambar et al. (1989) Biochem. Biophys. Res. Commun. 158, 195-201; and Khoog et al. (1989) Febs Letters, 253, 199-202.
(§2) Endothelin-1 (ET-1) was purchased from Peptides International (Louisville, KY ). ¹²⁵I-ET-1 (2000 Ci/mMol) was purchased from Amersham (Arlington Heights, IL).
(§3) Membranes were prepared from rat hippocampus, and rat or cow aorta. Dissected tissue was homogenized twice for 30 seconds with a Brinkman Polytron [setting 10, Generator PTA 20 TS (Westbury, NY)] in ice cold 250 mM sucrose, 50 mM Tris-HCl pH 7.4 with 7 µg/ml pepstatin A and 0.5 µg/ml leupeptin. The crude particulate matter was removed by centrifugation at 750 x g for 10 min. The membranes were sedimented from the supernatant fraction by centrifugation at 48,000 g for 30 min. Membrane pellets were resuspended in the above buffer with protease inhibitors. Aliquots of these suspensions were stored at -70° C.
(§4) Binding studies with ¹²⁵I-ET-1 were conducted in 50 mM potassium phosphate pH 7.5 with 0.1% bovine serum albumin (BSA) using 12-well Shatron (Lier, Norway) cell harvester tube strips. ¹²⁵I-ET-1 concentrations were 25 pM for hippocampus, 150 pM for aorta. Samples were dissolved in dimethylsulfoxide (DMSO). Upon addition of the sample, the final DMSO concentration was 3%. Membranes were added last to start the binding reaction. The reaction mixture was incubated at 37° C for 30 or 60 minutes. Binding reactions were terminated using a Skatron cell harvester by filtration through glass fiber filter pads presoaked with 2% BSA. The samples on the pads were immediately washed with 150 mM NaCl 0.1% BSA. The pads were punched out and radioactivity was evaluated in a Beckman Gamma 5500 gamma counter (Fullerton, CA). Nonspecific binding was determined in the presence of 100 nM ET-1. The results of this binding assay are set out in the table of values below: TABLE VI

Assay [1] can be described thus: Immunosuppressant activity (assay not described). The settings on record: may be attributable to assay differences.
For the next assay, the target named is T2, ET-A (Rattus norvegicus, UniProt P26684).
T2 construct: Membranes were prepared from rat hippocampus, and rat or cow aorta; from tissue; host or cells: rat aorta membranes
T2 sequence (P26684 21-426): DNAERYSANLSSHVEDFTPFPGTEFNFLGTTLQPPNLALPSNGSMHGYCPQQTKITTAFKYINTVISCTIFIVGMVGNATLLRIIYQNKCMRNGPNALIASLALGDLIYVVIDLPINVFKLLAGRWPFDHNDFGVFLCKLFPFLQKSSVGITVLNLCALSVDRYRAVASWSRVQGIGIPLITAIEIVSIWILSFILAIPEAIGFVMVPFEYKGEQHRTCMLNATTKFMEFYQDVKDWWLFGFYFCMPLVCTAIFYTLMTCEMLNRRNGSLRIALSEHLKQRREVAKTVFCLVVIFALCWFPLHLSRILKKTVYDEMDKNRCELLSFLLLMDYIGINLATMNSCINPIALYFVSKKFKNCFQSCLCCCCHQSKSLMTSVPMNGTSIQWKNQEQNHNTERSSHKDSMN
Briefly: 125I-ET-1 endothelin receptor binding assay, rat aorta membranes. The settings on record: 150 pM 125I-ET-1, 37° C. As to the method:
as §1, §2, §3, §4

Consider `C[C@H]1NC(=O)[C@@H](Cc2ccccc2)NC(=O)[C@H](NC(=O)[C@H](Cc2ccccc2)NC(=O)c2ccc(Cl)[nH]2)[C@@H](C)OC(=O)[C@@H](c2cc(O)cc(O)c2)NC(=O)[C@@H](c2cc(O)cc(O)c2)NC1=O` [Compound III] (X1-F[d(aThr)][dF][dA][dPhg(3,5-diOH)][dPhg(3,5-diOH)]; ester 2-C), for which the inhibition constant Ki on ET-B was 500 nM; at ET-A it was 200 nM. Further, the immunosuppressant activity result in assay [1] was “no significant immunosuppressant activity”.
The matching figures for `C[C@H]1NC(=O)[C@@H](Cc2ccccc2)NC(=O)[C@H](NC(=O)[C@H](Cc2ccccc2)NC(=O)c2ccc(Cl)[nH]2)[C@@H](C)OC(=O)[C@H](c2cc(O)cc(O)c2)NC(=O)[C@@H](c2cc(O)cc(O)c2)NC1=O` [Compound II] (X1-F[d(aThr)][dF][dA][dPhg(3,5-diOH)][X2]; ester 2-C): 3000 nM, 3000 nM and “no significant immunosuppressant activity”.
With `C[C@H]1NC(=O)[C@@H](Cc2ccccc2)NC(=O)[C@H](NC(=O)[C@H](Cc2ccccc2)NC(=O)c2ccc[nH]2)[C@@H](C)OC(=O)[C@@H](c2cc(O)cc(O)c2)NC(=O)[C@@H](c2cc(O)cc(O)c2)NC1=O` [Compound I] (Pyrrole2CO-F[d(aThr)][dF][dA][dPhg(3,5-diOH)][dPhg(3,5-diOH)]; ester 2-C), the Ki at ET-B was 200 nM; at ET-A it was 100 nM.
